Read-outs that look alike come from different tables or passages of the source.
Legend:
[1] = molecular target: T1, PI3K-α kinase (p110α/p85α) (Homo sapiens, UniProt P42336); assay: Determination of PI3K kinase activity (ADP Transcreener, fluorescence polarization); assay type: biochemical; settings: ATP 10 μM
T1 construct: purchased Invitrogen PV4788
Procedure: (§1) The inhibition of PI3K kinase activity by the compound to be tested was determined by the following method. The working concentration of each component in the 25 μL enzyme reaction system was: p110α/p85α 3 ng (or p110β/p85α 60 ng, or p110δ/p85α 90 ng, or p110γ 100 ng), ATP 10 μM, PIP2: PS (Invitrogen PV5100) 30 μM and the DMSO concentration was 2% after addition of the compound to be tested.
(§2) At the time of the test, the compound to be tested was dissolved in dimethylsulfoxide (DMSO) according to the desired concentration of the experiment. The compound to be tested was gradiently diluted 3 times (0.00046-1 μM, 8 concentration points) with 10% DMSO. 5 μL of the compound to be tested was added to each well of a 96-well plate (Greiner 675076) in duplicate. […] 10 μL of ATP/PIP2: PS and 10 μL of the PI3K enzyme working solution were added to each well in a 96-well plate. The plate was shaken and mixed uniformly, and then incubated at 25° C. for 1 hour. At the same time, ADP and ATP (0.01 μM, 0.02 μM, 0.04 μM, 0.06 μM, 0.08 μM[…], 0.1 μM, 0.25 μM, 0.5 μM, 1 μM, 2 μM, 5 μM, 10 μM, 12 concentration points) were diluted with buffer to set the standard curve. After completion of the enzyme reaction, 25 μL of ADP assay solution (1% 100×ADP tracer, 0.79% ADP antibody and 10% 10× reaction stop solution) was added and incubated at 25° C. for 1 hour. Fluorescence polarization value [mP] of each well was measured with a Perkin Elmer Victor X5 Fluorescent Microplate. The ADP concentration [ADP] was calculated from the ADP/ATP standard curve and the IC50 values were calculated using the XLFit software.

NIH3T3 cells = assay: Cytotoxicity by MTT assay, NIH3T3; assay type: cell-based; settings: Mus musculus, NIH3T3, 72 h, cytotoxicity class, read-out: NIH3T3 cell (IC50/nM)
Procedure: The MTT assay procedure and steps were carried out as well known to those skilled in the art, and all the reagents used in the methods were commercially available.
(§3) The cells in logarithmic growth phase were digested with 0.25% EDTA trypsin (Gibco, 25200-056) and resuspended in fresh medium. 90 μL of the cell suspension was inoculated into a 96-well cell culture plate (BD Faclon 353072) with a suitable cell density and cultured at 37° C. under 5% CO2. After the cells adhered, 10 μL of the test compound at different concentrations (0.0046-10 μM, 8 concentration points) was added and incubated for another 72 h. 10 μL of MTT (5 mg/mL PBS solution) (Sigma, M5655) was added to react for 4 h. The absorbance at 492 nm was measured by using Thermo Scientific Multiskan MK3 microplate reader and IC50 was calculated using XLFIT 5.0 software (UK IDBS).

PI3K-γ kinase (p110γ) = molecular target: T2, PI3K-γ kinase (p110γ) (Homo sapiens, UniProt P48736); assay: Determination of PI3K kinase activity (ADP Transcreener, fluorescence polarization); assay type: biochemical; settings: Table 1; ATP 10 μM; read-out: PI3K-γ/nM (IC50 of inhibitory activity against PI3K kinase)
T2 construct: purchased Invitrogen PV4786
T2 sequence (P48736 whole entry): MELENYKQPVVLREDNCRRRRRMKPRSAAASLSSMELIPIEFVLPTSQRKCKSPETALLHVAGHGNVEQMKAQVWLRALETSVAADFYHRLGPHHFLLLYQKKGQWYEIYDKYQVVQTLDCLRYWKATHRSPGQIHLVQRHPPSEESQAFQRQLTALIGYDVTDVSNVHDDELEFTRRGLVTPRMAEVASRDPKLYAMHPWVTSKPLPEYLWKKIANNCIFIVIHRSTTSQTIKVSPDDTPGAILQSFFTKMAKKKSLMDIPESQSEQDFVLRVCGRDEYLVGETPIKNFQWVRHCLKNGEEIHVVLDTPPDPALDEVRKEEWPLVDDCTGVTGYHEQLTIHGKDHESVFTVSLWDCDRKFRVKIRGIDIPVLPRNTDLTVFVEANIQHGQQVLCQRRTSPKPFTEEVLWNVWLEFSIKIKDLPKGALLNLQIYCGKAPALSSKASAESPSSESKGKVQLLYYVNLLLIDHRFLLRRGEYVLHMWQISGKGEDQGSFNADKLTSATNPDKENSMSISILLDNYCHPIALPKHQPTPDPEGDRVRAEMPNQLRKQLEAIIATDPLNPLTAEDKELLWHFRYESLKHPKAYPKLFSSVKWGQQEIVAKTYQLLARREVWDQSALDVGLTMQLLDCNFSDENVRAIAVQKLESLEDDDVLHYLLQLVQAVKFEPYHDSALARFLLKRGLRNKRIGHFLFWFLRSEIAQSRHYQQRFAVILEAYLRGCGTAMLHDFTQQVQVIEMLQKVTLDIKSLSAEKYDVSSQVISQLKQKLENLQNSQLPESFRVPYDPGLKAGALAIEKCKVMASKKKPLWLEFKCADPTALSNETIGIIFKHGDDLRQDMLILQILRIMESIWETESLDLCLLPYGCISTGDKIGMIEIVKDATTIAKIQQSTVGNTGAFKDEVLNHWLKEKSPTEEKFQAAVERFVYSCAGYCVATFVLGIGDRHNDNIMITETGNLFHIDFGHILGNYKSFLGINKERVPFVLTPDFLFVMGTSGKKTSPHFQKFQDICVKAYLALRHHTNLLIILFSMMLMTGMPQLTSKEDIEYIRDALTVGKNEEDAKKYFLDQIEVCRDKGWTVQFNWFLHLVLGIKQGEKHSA
Procedure: The PI3K kinase used in the experiment: p110α/p85α (Invitrogen PV4788), p110β/p85α (Millipore 14-603), p110δ/p85α (Millipore 14-604M), and p110γ (Invitrogen PV4786).
as §1
as §2, with “duplicate. 2.5× buffer was prepared and 1 μL of DTT (Millipore 20-265) was added to each 800 μL of 2.5× buffer.” for “duplicate.”

MCF-7 cells = assay: Cell inhibitory activity detected by MTT assay, MCF-7; assay type: cell-based; settings: Homo sapiens, MCF7, 72 h, read-out: MCF-7 cell (IC50/nM), cell growth inhibition
Procedure: as §3, with “The MTT assay procedure and steps were carried out as well known to those skilled in the art, and all the reagents used in the methods were commercially available. The cells” for “The cells”, “(UK IDBS). MCF-7 cell culture medium: DMEM medium (Hyclone SH30243.01B+10% FBS (Gibco 10099-141)” for “(UK IDBS).”

T47D cells = assay: Cell inhibitory activity detected by MTT assay, T47D; assay type: cell-based; settings: Homo sapiens, T47D, 72 h, read-out: T47D cell (IC50/nM), cell growth inhibition
Procedure: as §3, with “The MTT assay procedure and steps were carried out as well known to those skilled in the art, and all the reagents used in the methods were commercially available. The cells” for “The cells”, “(UK IDBS). T47D cell culture medium: RPMI-1640 medium (Hyclone SH30809.01B)+10% FBS (Gibco 10099-141)” for “(UK IDBS).”

[2] = molecular target: T3, PI3K-β kinase (p110β/p85α) (Homo sapiens, UniProt P42338); assay: Determination of PI3K kinase activity (ADP Transcreener, fluorescence polarization); assay type: biochemical; settings: Table 1; ATP 10 μM; read-out: PI3K-β/nM (IC50 of inhibitory activity against PI3K kinase)
T3 construct: purchased Millipore 14-603
T3 sequence (P42338 whole entry): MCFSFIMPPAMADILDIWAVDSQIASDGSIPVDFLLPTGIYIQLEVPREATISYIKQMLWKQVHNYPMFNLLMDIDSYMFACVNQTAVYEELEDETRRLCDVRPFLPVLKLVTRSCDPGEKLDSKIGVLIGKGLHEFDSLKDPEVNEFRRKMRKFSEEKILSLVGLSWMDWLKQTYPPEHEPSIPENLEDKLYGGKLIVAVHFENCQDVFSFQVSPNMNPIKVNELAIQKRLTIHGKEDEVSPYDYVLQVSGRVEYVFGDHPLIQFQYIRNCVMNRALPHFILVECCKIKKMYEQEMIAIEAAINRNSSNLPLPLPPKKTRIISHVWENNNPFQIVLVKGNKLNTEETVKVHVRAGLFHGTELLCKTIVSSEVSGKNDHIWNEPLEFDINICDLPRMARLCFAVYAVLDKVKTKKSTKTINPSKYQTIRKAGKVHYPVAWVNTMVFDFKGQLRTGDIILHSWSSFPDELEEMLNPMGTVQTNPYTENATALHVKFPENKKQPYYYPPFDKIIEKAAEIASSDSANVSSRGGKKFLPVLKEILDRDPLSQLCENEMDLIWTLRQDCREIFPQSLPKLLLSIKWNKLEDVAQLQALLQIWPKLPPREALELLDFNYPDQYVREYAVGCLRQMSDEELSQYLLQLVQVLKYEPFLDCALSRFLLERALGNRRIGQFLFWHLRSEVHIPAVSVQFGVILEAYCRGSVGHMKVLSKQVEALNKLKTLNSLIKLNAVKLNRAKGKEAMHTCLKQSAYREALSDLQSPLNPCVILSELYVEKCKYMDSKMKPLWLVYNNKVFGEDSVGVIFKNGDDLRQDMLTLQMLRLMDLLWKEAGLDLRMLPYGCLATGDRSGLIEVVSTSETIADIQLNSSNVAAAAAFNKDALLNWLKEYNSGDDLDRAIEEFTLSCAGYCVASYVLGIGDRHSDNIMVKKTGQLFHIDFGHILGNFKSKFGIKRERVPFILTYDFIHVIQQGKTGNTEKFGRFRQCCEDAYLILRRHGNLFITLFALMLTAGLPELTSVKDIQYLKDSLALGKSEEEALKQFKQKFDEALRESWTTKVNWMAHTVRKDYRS
T3 sequence (P27986 whole entry partner): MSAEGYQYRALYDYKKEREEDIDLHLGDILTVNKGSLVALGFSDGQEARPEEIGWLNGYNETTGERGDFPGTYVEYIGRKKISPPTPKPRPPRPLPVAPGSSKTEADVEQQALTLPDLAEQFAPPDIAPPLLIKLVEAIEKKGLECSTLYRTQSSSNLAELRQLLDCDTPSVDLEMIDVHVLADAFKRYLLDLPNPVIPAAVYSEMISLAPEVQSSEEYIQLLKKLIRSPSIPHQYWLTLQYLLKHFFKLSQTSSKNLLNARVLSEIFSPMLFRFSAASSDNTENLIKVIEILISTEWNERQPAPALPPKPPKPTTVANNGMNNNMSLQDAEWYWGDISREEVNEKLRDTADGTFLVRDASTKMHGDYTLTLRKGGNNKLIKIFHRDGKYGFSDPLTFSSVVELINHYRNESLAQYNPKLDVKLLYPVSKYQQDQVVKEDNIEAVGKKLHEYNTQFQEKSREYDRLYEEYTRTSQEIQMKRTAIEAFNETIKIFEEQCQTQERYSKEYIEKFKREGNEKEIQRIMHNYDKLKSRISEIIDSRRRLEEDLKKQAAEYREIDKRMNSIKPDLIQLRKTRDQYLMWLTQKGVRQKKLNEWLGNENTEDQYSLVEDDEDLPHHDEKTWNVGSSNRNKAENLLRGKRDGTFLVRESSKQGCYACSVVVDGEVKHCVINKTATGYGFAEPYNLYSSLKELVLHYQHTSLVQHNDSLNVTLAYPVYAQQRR
Procedure: as §1, §2

[3] = molecular target: T4, PI3K-δ kinase (p110δ/p85α) (Homo sapiens, UniProt O00329); assay: as above; assay type: biochemical; settings: Table 1; ATP 10 μM; read-out: PI3K-δ/nM (IC50 of inhibitory activity against PI3K kinase)
T4 construct: purchased Millipore 14-604M
T4 sequence (O00329 whole entry): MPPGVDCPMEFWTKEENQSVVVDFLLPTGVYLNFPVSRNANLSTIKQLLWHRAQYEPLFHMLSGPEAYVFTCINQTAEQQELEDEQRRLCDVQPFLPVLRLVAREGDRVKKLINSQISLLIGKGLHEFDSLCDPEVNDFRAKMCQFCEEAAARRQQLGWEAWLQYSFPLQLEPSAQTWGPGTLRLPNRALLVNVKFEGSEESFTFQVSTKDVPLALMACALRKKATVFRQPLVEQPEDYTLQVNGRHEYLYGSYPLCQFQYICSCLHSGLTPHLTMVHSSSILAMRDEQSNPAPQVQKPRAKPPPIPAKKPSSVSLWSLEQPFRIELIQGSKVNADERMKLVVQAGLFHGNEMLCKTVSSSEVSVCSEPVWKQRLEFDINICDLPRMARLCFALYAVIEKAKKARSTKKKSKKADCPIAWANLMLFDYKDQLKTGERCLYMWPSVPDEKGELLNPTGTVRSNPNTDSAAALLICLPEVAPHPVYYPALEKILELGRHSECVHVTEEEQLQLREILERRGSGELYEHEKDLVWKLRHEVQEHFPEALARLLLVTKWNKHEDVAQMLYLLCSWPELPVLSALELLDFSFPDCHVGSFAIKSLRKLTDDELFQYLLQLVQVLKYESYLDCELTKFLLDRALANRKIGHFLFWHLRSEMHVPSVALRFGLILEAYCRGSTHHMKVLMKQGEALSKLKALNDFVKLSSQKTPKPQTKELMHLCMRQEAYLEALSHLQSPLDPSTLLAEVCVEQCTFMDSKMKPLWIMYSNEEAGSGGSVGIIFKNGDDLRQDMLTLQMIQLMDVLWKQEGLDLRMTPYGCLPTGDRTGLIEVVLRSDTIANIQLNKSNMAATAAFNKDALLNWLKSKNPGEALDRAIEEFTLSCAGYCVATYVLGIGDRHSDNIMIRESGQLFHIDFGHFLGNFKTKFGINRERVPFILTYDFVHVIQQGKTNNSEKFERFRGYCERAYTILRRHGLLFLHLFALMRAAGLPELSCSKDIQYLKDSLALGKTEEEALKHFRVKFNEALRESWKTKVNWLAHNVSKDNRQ
T4 sequence (P27986 whole entry partner): as the sequence (P27986 whole entry partner) above
Procedure: as §1, §2

[4] = Table 2, read-out: PI3K-α/nM (IC50 of inhibitory activity against PI3K-α kinase)
[5] = Table 1, read-out: PI3K-α/nM (IC50 of inhibitory activity against PI3K kinase)

T1 sequence (P42336 whole entry): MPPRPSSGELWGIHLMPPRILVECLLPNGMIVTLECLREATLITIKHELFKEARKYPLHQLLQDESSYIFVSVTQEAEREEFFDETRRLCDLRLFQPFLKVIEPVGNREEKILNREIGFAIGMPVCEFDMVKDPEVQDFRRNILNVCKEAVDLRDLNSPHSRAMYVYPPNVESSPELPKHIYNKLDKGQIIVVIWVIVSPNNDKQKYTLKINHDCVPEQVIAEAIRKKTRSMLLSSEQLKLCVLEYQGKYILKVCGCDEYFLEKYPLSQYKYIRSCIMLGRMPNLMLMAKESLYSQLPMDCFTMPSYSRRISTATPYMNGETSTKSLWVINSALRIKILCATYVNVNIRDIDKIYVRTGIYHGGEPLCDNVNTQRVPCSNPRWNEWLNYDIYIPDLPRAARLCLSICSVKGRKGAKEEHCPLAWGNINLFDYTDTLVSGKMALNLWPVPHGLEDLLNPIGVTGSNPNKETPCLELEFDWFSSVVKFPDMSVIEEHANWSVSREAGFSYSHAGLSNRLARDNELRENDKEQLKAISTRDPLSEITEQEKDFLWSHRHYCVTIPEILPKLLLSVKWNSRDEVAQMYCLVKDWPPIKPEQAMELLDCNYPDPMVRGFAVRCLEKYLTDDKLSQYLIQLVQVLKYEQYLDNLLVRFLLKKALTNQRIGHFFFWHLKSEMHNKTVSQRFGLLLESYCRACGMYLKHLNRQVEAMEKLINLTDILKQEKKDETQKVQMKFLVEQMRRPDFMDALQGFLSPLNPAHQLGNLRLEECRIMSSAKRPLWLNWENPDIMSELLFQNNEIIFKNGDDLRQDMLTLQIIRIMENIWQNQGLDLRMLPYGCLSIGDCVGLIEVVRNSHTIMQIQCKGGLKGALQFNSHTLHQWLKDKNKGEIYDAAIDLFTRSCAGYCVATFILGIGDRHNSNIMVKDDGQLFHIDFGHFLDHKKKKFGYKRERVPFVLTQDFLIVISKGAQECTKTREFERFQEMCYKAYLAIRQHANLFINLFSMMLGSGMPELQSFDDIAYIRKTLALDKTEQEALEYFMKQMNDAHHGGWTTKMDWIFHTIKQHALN
T1 sequence (P27986 whole entry partner): as the sequence (P27986 whole entry partner) above

SMILES | IC50 [1, 4] | IC50 (PI3K-γ kinase (p110γ)) | IC50 [1, 5] | IC50 (MCF-7 cells) | IC50 (T47D cells) | IC50 [2] | IC50 [3] | IC50 (NIH3T3 cells)
Nc1cc(C(F)(F)F)c(-c2cc(C3(C(=O)N4CCOCC4)CC3)nc(N3CCOCC3)n2)cn1 [Compound S-3, (1-(6-(6-amino-4-(trifluoromethyl)pyridin-3-yl)-2-morpholinopyrimidin-4-yl)cyclopropyl)(morpholino)ketone] | 280 nM | – | – | – | – | – | – | > 10000 nM
C[C@H]1COCCN1c1nc(-c2cnc(N)cc2C(F)(F)F)cc(C2(S(C)(=O)=O)CC2)n1 [Compound S-6] | – | 164 nM | 16 nM | 112 nM | 129 nM | – | – | 1000 to 3000 nM
CN(C1(c2cc(-c3cnc(N)cc3C(F)(F)F)nc(N3CCOCC3)n2)CC1)S(C)(=O)=O [Compound S-14, N-(1-(6-(6-amino-4-(trifluoromethyl)pyridin-3-yl)-2-morpholinopyrimidin-4-yl)cyclopropyl)-N-methylmethanesulfonamide] | – | – | 13 nM | 267 nM | 278 nM | 1120 nM | – | 1000 to 3000 nM
CS(=O)(=O)NC1(c2cc(-c3cnc(N)cc3C(F)(F)F)nc(N3CCOCC3)n2)CC1 [Compound S-24, N-(1-(6-(6-amino-4-(trifluoromethyl)pyridin-3-yl)-2-morpholinopyrimidin-4-yl)cyclopropyl)methanesulfon amide] | – | 291 nM | 10 nM | – | 305 nM | 376 nM | 85 nM | 5000 to 10000 nM
CC(=O)NC1(c2cc(-c3cnc(N)cc3C(F)(F)F)nc(N3CCOCC3)n2)CC1 [Compound S-26, N-(1-(6-(6-amino-4-(trifluoromethyl)pyridin-3-yl)-2-morpholinopyrimidin-4-yl)cyclopropyl)acetamide] | 390 nM | – | – | – | – | – | – | > 10000 nM
CCS(=O)(=O)C(C)(C)c1cc(-c2cnc(N)cc2C(F)(F)F)nc(N2CCOCC2)n1 [Compound S-29] | – | 256 nM | – | – | – | 1740 nM | 612 nM | 1000 to 3000 nM
CS(=O)(=O)C(F)(F)c1cc(-c2cnc(N)cc2C(F)(F)F)nc(N2CCOCC2)n1 [Compound S-53] | – | 287 nM | 33 nM | 408 nM | – | 1550 nM | 516 nM | 1000 to 3000 nM
Nc1cc(C(F)(F)F)c(-c2cc(C3(S(=O)(=O)c4cccc(F)c4)CC3)nc(N3CCOCC3)n2)cn1 [Compound S-57, 5-(6-(1-(3-fluorophenylsulfonyl)cyclopropyl)-2-morpholinopyrimidin-4-yl)-4-(trifluoromethyl)pyridin-2-amine] | – | 236 nM | 18 nM | 286 nM | 242 nM | 284 nM | 62 nM | 1000 to 3000 nM

More lines, main results first:

IC50 [1, 4] | IC50 (PI3K-γ kinase (p110γ)) | IC50 [1, 5] | IC50 (MCF-7 cells) | IC50 (T47D cells) | IC50 [2] | IC50 [3] | SMILES | IC50 (NIH3T3 cells)
– | 2120 nM | 55 nM | – | – | 1540 nM | 491 nM | CC(C)S(=O)(=O)C(C)(C)c1cc(-c2cnc(N)cc2C(F)(F)F)nc(N2CCOCC2)n1 [Compound S-22] | 1000 to 3000 nM
– | 1930 nM | 26 nM | – | 324 nM | 217 nM | 67 nM | Nc1cc(C(F)(F)F)c(-c2cc(C3(S(=O)(=O)c4ccccc4)CC3)nc(N3CCOCC3)n2)cn1 [Compound S-25] | 1000 to 3000 nM
858 nM | – | – | – | – | – | – | CS(=O)(=O)C1(c2cc(-c3cnc(N)c(C(F)(F)F)c3)nc(N3CCOCC3)n2)CC1 [Compound S-44, 5-(6-(1-(methylsulfonyl)cyclopropyl)-2-morpholinopyrimidin-4-yl)-3-(trifluoromethyl)pyridin-2-amine] | 1000 to 3000 nM
– | 914 nM | 18 nM | – | – | 2780 nM | 336 nM | CS(=O)(=O)C(F)c1cc(-c2cnc(N)cc2C(F)(F)F)nc(N2CCOCC2)n1 (stereo not shown) [Compound S-52, 5-(6-(fluoro(methylsulfonyl)methyl)-2-morpholinopyrimidin-4-yl)-4-(trifluoromethyl)pyridin-2-amine] | 3000 to 5000 nM
